The record followed here is US10370410B2, “Cancer cell-targeting peptide and use thereof” (KYUNGPOOK NATIONAL UNIVERSITY INDUSTRY-ACADEMIC COOPERATION …, priority 2015, dated 2019).

Ends that are not written are not given here. FPI774 = near-infrared fluorescent reagent (label)

Test [1] relates to tumor of K-ras^LA2 transgenic mouse. As to the kind of experiment: Binding capability of phage clones to tumor (phage titer). The note with it: phage clone expressing the peptide administered into K-ras^LA2 transgenic mouse; FIG. 4B. It is filed as in vivo. On the procedure:
The phage clones that express each of the peptides were administered into the K-ras^LA2 transgenic mouse, and bound to tumor, and a titer of the phage clones was measured.

The test system of test [2] is K-ras transgenic tumor cells. In words: Phage library screening and sequence analysis of phage clones. The conditions noted are these: phage clones from 4th and 5th screening rounds, sequence analysis. It is filed as in vivo, mouse. On the procedure:
To screen peptides having specificity to K-ras transgenic tumor cells in the T7 CX7C phage library prepared above, a random peptide phage library (1×10^11 pfu) were injected into a K-ras^LA2 transgenic mouse via the tail vein.
After 15 minutes, the tumor was excised from the lungs of the K-ras^LA2 transgenic mouse, finely ground, and added to a DMEM medium to prepare a cell suspension, which was then passed through a70-M filter (DAKO, Carpinteria, Calif., USA). The phages bound to the tumor were reacted with 1% NP-40 for 10 minutes for separation. Afterwards, the separated phages were recovered by treatment with cultured BL21 host bacteria. The phages that were recovered by the BL21 host bacteria and amplified were injected into a K-ras^LA2 transgenic mouse via the tail vein. Such a round of the screening of phage library was repeated five times. […] At the final 5th round, the multiplicative […] of the phage clones increased 162 times the first round. Afterwards, from the 4th round and the 5th rounds, a total of 49 clones were randomly selected for the sequencing.
DNA inserts of each of the 49 phage clones collected in Example 2-2 were sequenced by an automated DNA sequencer (Genotech Inc., Daegeon and SolGent Inc. Daegu) using a 96 pill primer (New England Biolabs). To find amino acid motifs shared between the common sequences or peptides, amino acid sequences deduced based on the nucleotide sequences were was aligned by using the Clustal W program. To find proteins having significant homology, NCBI BLAST search was performed with respect to peptide sequences. As a result of the sequence analysis of the peptides, four phage clones with high affinity for the K-ras transgenic tumor cells were confirmed, and the peptide sequences thereof were as follows: CKSRKDGAC (4R-3, SEQ ID NO: 1), CMPKRPSSC (4R-16, SEQ ID NO: 2), CRGTAEG (4R-21, SEQ ID NO: 3), and CRQTKN (5R-7, SEQ ID NO: 4).

The subject of test [3] is tumors of the K-ras^LA2 transgenic mouse. In words: Near-infrared fluorescence imaging of FPI774-labeled tumor-targeting peptides. It is filed as in vivo. The conditions noted are these: FPI774-labeled peptide, tail vein, 4 hours, FIG. 5. As for the experimental part: To validate whether the peptides prepared in <Example 2-5> in the present invention were specifically transferred to the tumor cells of the K-ras^LA2 transgenic mouse, a control peptide and a peptide labeled with FPI774 and having SEQ ID NO: 1 to SEQ ID NO: 4 were injected into the K-ras^LA2 transgenic mouse and a normal mouse via the tail vein of each mouse. After 4 hours, the mice were sacrificed, and each organ thereof was extracted for the near-infrared fluorescence imaging using the eXplore Optix system (ART Inc, Montreal, Canada).

Test [4] relates to tumors of K-ras^LA2 transgenic mouse. In words: Target transfer capability of FPI774-CRQTKN peptide (near-infrared organ imaging). It counts as in vivo. The note with it: tail vein, 4 hours; for fluorescence of FPI774 in the lungs: FIG. 6A. On the procedure:
To confirm the binding capability of the CRQTKN peptide (SEQ ID NO: 4) to the K-ras tumors, the FPI774-CRQTKN (SEQ ID NO: 13) peptide, which is a peptide labeled with a near-infrared fluorescent reagent FPI774, and a control peptide were administered into a K-ras^LA2 transgenic mouse and a normal mouse via the tail vein of each mouse.
After 4 hours, the mice were scarified, and each organ thereof was extracted for the near-infrared fluorescence imaging using the eXplore Optix system (ART Inc, Montreal, Canada).

Take “CKSRKDGAC (4R-3 peptide) [tumor-targeting peptide … identified by phage library screening; tested as phage clone and as FPI774-labeled peptide]”: in test [1], the “binding capability of phage clone to the tumor (titer)” value is reported as “greatest binding capability”. Moreover, the “affinity of phage clones for the K-ras transgenic tumor cells” value (“affinity of phage clones” for short) in test [2] was “high affinity”.

Turning to “CMPKRPSSC (4R-16 peptide) [tumor-targeting peptide … identified by phage library screening]”, in test [2], the “affinity of phage clones” value is “high affinity”.

For the substance “CRGTAEG (4R-21 peptide) [tumor-targeting peptide CRGTAEG identified by phage library screening]”, the “affinity of phage clones” value in test [2] is reported as “high affinity”.

As for “CRQTKN: tumor-targeting peptide CRQTKN identified by phage library screening (5R-7 peptide)”, the “transfer to the tumors (near-infrared fluorescence)” value in test [3] is “most strongly transferred”. Also, the “affinity of phage clones” value in test [2] is “high affinity”.

Take “FPI774-CRQTKN: CRQTKN peptide labeled with a near-infrared fluorescent reagent FPI774”: the “fluorescence of FPI774 in the lungs” value in test [4] (K-ras^LA2 transgenic mouse) is “strongly expressed”; in test [4] (normal mouse), “not expressed”. Besides, in test [4] (FIG. 6B), the “fluorescence of FPI774 in organs other than the lungs (kidney and liver)” value is recorded as “not observed in general”.
